Entries after “also recorded” stand apart in the source; their conditions may differ.
Key:
[1] = system: CRM1-mediated nuclear export; experiment: Nuclear export block: subcellular localization of GFP-HDHB and FLAG-HDHB with or without LMB; format: cell-based, human; settings: asynchronous, G1 and S phase U2OS cells; 10 ng/ml LMB with 10 μM cycloheximide, 3 h
Procedure: In experiments to block nuclear protein export, cells were cultured for 3 h in DMEM containing 10 ng/ml of leptomycin B (LMB) (gift from Dr. M. Yoshida) and 10 μM cycloheximide (Calbiochem, San Diego, Calif.) to prevent new protein synthesis. Cells plated on glass coverslips were microinjected as described (Herbig et al., 1999) except that plasmid DNA rather than protein was injected.
To assess whether the putative NES in HDHB was functional, we mutated Val/Leu and Leu/Leu of the NES motif to alanine to create NES mutants 1 and 2 (FIG. 6A). GFP-HDHB and GFP-βGal-PSLD harboring these NES mutations were transiently expressed in either asynchronous or synchronized U2OS cells.

[2] = system: U2OS cells transiently expressing GFP-HDHB; experiment: DNA damage response assay: GFP-HDHB nuclear focus formation; format: cell-based, human; settings: 20 μM etoposide, 10 μM camptothecin or 1 μM mitomycin C, 20 h, DMSO control, Triton X-100 extraction
Procedure: U2OS cells (80-90% confluent) were transfected with pGFP-HDHB according to the manufacturer's protocol (Lipofectamine 2000, Invitrogen). […] After 20 h, cells were extracted with Triton X-100 buffer and then fixed for immunofluorescence as described above. Distinctive GFP-HDHB nuclear foci were counted in more than 100 cells in each independent assay.
Moreover, DNA damage induces nuclear foci that are thought to contain damage-sensing and -processing proteins (Nelms et al., Science, (1998) 280, 590-592; van den Bosch et al. EMBO Rep., (2003), 4, 844-849).

Structure (SMILES): CCC(=C/[C@H](C)C/C=C/C(C)=C/[C@@H](C)C(=O)[C@@H](C)[C@H](O)[C@@H](C)C/C(C)=C/C(=O)O)/C=C/[C@@H]1OC(=O)C=C[C@@H]1C [LMB, leptomycin B]
- subcellular localization of GFP-HDHB and FLAG-HDHB fusion proteins in the presence of LMB [1]: both fusion proteins accumulated in the nucleus independently of the cell cycle

Structure (SMILES): CO[C@@]12[C@H](COC(N)=O)C3=C(C(=O)C(C)=C(N)C3=O)N1C[C@@H]1N[C@@H]12 [Mitomycin C, mitomycin C]
- number of large GFP-HDHB nuclear foci per cell compared to the control [2]: little effect

Structure (SMILES): CC[C@@]1(O)C(=O)OCc2c1cc1n(c2=O)Cc2cc3ccccc3nc2-1 [camptothecin]
- number of large GFP-HDHB nuclear foci per cell compared to the control [2]: more than doubled; also recorded: induced many more HDHB nuclear foci

— US20070212707A1, “CELL CYCLE MARKERS” (GE HEALTHCARE UK LIMITED, priority 2004, published 2007)
